Results from US20200370050A1, “CELL PROLIFERATION INHIBITOR AND CANCER TREATMENT OR PREVENTION PHARMACEUTICAL COMPOSITION INCLUDING CELL PROLIFERATION INHIBITOR” (priority 2017, published 2020).

Experiments:
HCT116 cells = assay: Effect of CRAF protein fragment on cell growth, number of living cells by WST assay (CCK-8); type: cell-based, human; settings: 1.0×10^4 cells seeded (similar tendency at 2.0×10^4), transfected with pcDNA-hRAF384, 100 ng plasmid per well, 0-96 h, control empty vector pcDNA3.1(+), FIG. 5 part A
Description: (§1) The CRAF protein fragment expression plasmid pcDNA-hRAF384 (5807 bp) was prepared by cloning the region of positions 332 to 718 of the human CRAF gene (SEQ ID NO: 6) downstream of a CMV (cytomegalovirus) promoter in the vector pcDNA3.1(+) (Thermo Fisher Scientific). The plasmid expresses a CRAF protein fragment (a polypeptide having the amino acid sequence set forth in SEQ ID NO: 9) of positions 56 to 184 of the human CRAF protein (SEQ ID NO: 5).
(§2) HCT116 cells (KRAS mutation-positive human colon cancer cells) were obtained from ATCC. Since HCT116 cells have KRAS in which the position 13 amino acid glycine (G) is activatingly mutated to aspartic acid (D), the RAS/RAF/ME/ERK signaling cascade is activated in HCT116 cells.
(§3) The HCT116 or DLD-1 cells were seeded at 1.0×10^4 or 2.0 x 10^4 cells per well of 96-well plates and cultured in a McCoy's SA medium in an environment of 5% CO2 at 37° C. for 24 h. The cultured cells were transfected with the CRAF protein fragment expression plasmid pcDNA-hRAF384 using Lipofectamine 3000 (Thermo Fisher Scientific). As a control, the cells were transfected with the empty vector pcDNA3.1(+) (Thermo Fisher Scientific). […]
(§4) Immediately (0 h), 24 h, 48 h, 72 h, and 96 h after the cultivation, the cells were collected and measured for the number of living cells by WST assay. […]

DLD-1 cells = assay: as above; type: cell-based, human; settings: 1.0×10^4 cells seeded (similar tendency at 2.0×10^4), transfected with pcDNA-hRAF384, 100 ng plasmid per well, 0-96 h, control empty vector pcDNA3.1(+), FIG. 5 part B
Description: as §1
as §2, with “DLD-1” for “HCT116”, “JCRB Cell Bank of National Institutes of Biomedical innovation, Health and Nutrition.” for “ATCC.”, “RAS/RAF/MEK/ERK” for “RAS/RAF/ME/ERK”
as §3, §4

CRAF protein fragment: Polypeptide of SEQ ID NO: 9, positions 56 to 184 of human CRAF protein, expressed from plasmid pcDNA-hRAF384
cell growth (number of living cells) as compared to the control (HCT116 cells): reduced growth
cell growth (number of living cells) as compared to the control (DLD-1 cells): reduced growth
